The record followed here is article PMC5979531, “Structural Requirements of Alkylglyceryl-L-Ascorbic Acid Derivatives for Melanogenesis Inhibitory Activity” (International Journal of Molecular Sciences, 2018).

One data set relates to B16 melanoma 4A5 cells. As to the kind of experiment: Theophylline-stimulated melanogenesis inhibition (melanin content). Type of data set: cell-based, murine. The conditions noted are these: Mus musculus, 72 h; for inhibition at 3 µM / inhibition at 10 µM / inhibition at 30 µM / inhibition at 100 µM: theophylline-stimulated B16 4A5 cells; for IC50: theophylline (1 mM)-stimulated B16 melanoma 4A5 cells. Here is the method:
(§1) The effects on theophylline-stimulated melanogenesis and viability of B16 melanoma 4A5 cells were examined according to previously described protocols. Briefly, murine B16 melanoma 4A5 cells were seeded into 48-well plates in DMEM. After 24 h of culture, a test compound and theophylline (1 mM) were added and incubated for 72 h. The melanin content and cell viability were then measured. IC50 values were determined graphically.
Inhibition (%) was calculated using the following formula, where A and B indicate the optical density of the vehicle- and test compound-treated groups, respectively, and C indicates cell viability (%) (see below): Inhibition (%) = [(A − B)/A]/(C/100) × 100.

The test system of another data set is tyrosinase from mushroom. As to the kind of experiment: Mushroom tyrosinase activity. The format is biochemical. Here is the method:
Tyrosinase activities using L-tyrosine or L-DOPA as a substrate were determined according to the protocols described previously. Briefly, samples, L-tyrosine (2.5 mM, or L-DOPA, 3.0 mM), mushroom tyrosinase (46 units/mL), and phosphate buffer were mixed in a 96-well plate and incubated at 25 °C. (L-tyrosine; 30 min, L-DOPA; 5 min). The absorbance was then measured at 492 nm.

Data set [1] can be described thus: Cell viability of B16 melanoma 4A5 cells. Type of data set: cell-based, murine. The conditions noted are these: mouse, B16 4A5 cells. Here is the method:
as §1

Bounds are passed on as bounds.

One may read the inhibition as the change of the read-out against control, counted positive when it falls. In general, IC50 refers to the midpoint of a concentration-inhibition curve. Read a low IC50 as inhibition by little substance. Usually viability stands for a read-out of living cells in per cent, often relative to untreated cells. On to `CCCCCCCCCCCCCOC1=C(OCC(O)CO)[C@@H]([C@@H](O)CO)OC1=O` (stereo partly drawn) [compound 13, 3-O-(2,3-dihydroxypropyl)-2-O-tridecyl-AsA], for which, in the data set on B16 melanoma 4A5 cells, the inhibition at 3 µM was 0.1 ± 8.6%, the inhibition at 10 µM came to 46 ± 7.9%, the inhibition at 30 µM turned out to be 97.1 ± 2.3% and the inhibition at 100 µM was 108 ± 9.1%. Moreover, the IC50 with B16 melanoma 4A5 cells came out at 11.3 µM. Moreover, in the data set with tyrosinase from mushroom (Substrate: L-DOPA, 10 µM), the “Inhibition (%) of mushroom tyrosinase” value was −4.7 ± 5.0%. Further, the “Inhibition (%) of mushroom tyrosinase” value in the data set on tyrosinase from mushroom (Substrate: L-DOPA, 30 µM) is reported as −4.4 ± 1.8%. Also, the “Inhibition (%) of mushroom tyrosinase” value with tyrosinase from mushroom (Substrate: L-Tyrosine, 10 µM) is listed as −4.7 ± 2.9%. In addition, in the data set with tyrosinase from mushroom (Substrate: L-Tyrosine, 30 µM), the “Inhibition (%) of mushroom tyrosinase” value was −7.1 ± 1.7%. In data set [1], the viability at 72 h, 3 µM came to 96.3%; the viability at 72 h, 10 µM amounted to 87.2%; the viability at 72 h, 30 µM worked out at 63.7%; the viability at 72 h, 100 µM worked out at 23.5%.
As to `CCCCCCCOC1=C(OCC(O)CO)C(=O)O[C@@H]1[C@@H](O)CO` (stereo partly drawn) [compound 21, 2-O-(2,3-dihydroxypropyl)-3-O-heptyl-AsA], in the data set on B16 melanoma 4A5 cells, the inhibition at 3 µM is -6.3 ± 2.7%, the inhibition at 10 µM came out at 0.9 ± 8.2%, the inhibition at 30 µM came out at 21 ± 5% and the inhibition at 100 µM came to 44.6 ± 6.2%. In the data set with B16 melanoma 4A5 cells, this compound displayed an IC50 of over 100 µM. Further, the “Inhibition (%) of mushroom tyrosinase” value in the data set on tyrosinase from mushroom (Substrate: L-DOPA, 30 µM) is −10.0 ± 1.7%. In addition, the “Inhibition (%) of mushroom tyrosinase” value with tyrosinase from mushroom (Substrate: L-DOPA, 100 µM) is recorded as −11.3 ± 2.4%. In addition, the “Inhibition (%) of mushroom tyrosinase” value in the data set with tyrosinase from mushroom (Substrate: L-Tyrosine, 30 µM) is given as −9.2 ± 2.1%. The “Inhibition (%) of mushroom tyrosinase” value with tyrosinase from mushroom (Substrate: L-Tyrosine, 100 µM) is −9.8 ± 3.9%. In data set [1], the viability at 72 h, 3 µM is 97.9%; the viability at 72 h, 10 µM was found to be 92.7%; the viability at 72 h, 30 µM worked out at 92.7%; the viability at 72 h, 100 µM is 86.3%.
`CCCCCCCCOC1=C(OCC(O)CO)C(=O)O[C@@H]1[C@@H](O)CO` (stereo partly drawn) [compound 22, 2-O-(2,3-dihydroxypropyl)-3-O-octyl-AsA]: in the data set on B16 melanoma 4A5 cells, the inhibition at 3 µM is -10.4 ± 6%, the inhibition at 10 µM came to 1 ± 7%, the inhibition at 30 µM was 2.3 ± 5.9% and the inhibition at 100 µM stood at 34.8 ± 8.2%. The compound also returned an IC50 with B16 melanoma 4A5 cells of over 100 µM. In the data set with tyrosinase from mushroom (Substrate: L-DOPA, 30 µM), the “Inhibition (%) of mushroom tyrosinase” value is reported as −13.1 ± 3.3%. The “Inhibition (%) of mushroom tyrosinase” value in the data set on tyrosinase from mushroom (Substrate: L-DOPA, 100 µM) is listed as −4.5 ± 2.0%. Besides, the “Inhibition (%) of mushroom tyrosinase” value in the data set on tyrosinase from mushroom (Substrate: L-Tyrosine, 30 µM) is reported as −11.5 ± 1.6%. Further, the “Inhibition (%) of mushroom tyrosinase” value in the data set on tyrosinase from mushroom (Substrate: L-Tyrosine, 100 µM) was −14.4 ± 1.8%. Also, in data set [1], the viability at 72 h, 3 µM was 98.8%; the viability at 72 h, 10 µM was 99.3%; the viability at 72 h, 30 µM is 91.6%; the viability at 72 h, 100 µM worked out at 83%.
Regarding `CCCCCCCCCOC1=C(OCC(O)CO)C(=O)O[C@@H]1[C@@H](O)CO` (stereo partly drawn) [compound 23, 2-O-(2,3-dihydroxypropyl)-3-O-nonyl-AsA], in the data set on B16 melanoma 4A5 cells, the inhibition at 3 µM was -1.3 ± 9.4%, the inhibition at 10 µM is -2.6 ± 8%, the inhibition at 30 µM worked out at 14.9 ± 5.6% and the inhibition at 100 µM was 77.1 ± 2.4%. The compound further yielded an IC50 in the data set with B16 melanoma 4A5 cells of 72.9 µM. The “Inhibition (%) of mushroom tyrosinase” value in the data set on tyrosinase from mushroom (Substrate: L-DOPA, 30 µM) is −4.1 ± 2.2%. For the same compound, in the data set with tyrosinase from mushroom (Substrate: L-DOPA, 100 µM), the “Inhibition (%) of mushroom tyrosinase” value is reported as −1.5 ± 2.2%. Moreover, in the data set with tyrosinase from mushroom (Substrate: L-Tyrosine, 30 µM), the “Inhibition (%) of mushroom tyrosinase” value is −5.0 ± 3.1%. Further, the “Inhibition (%) of mushroom tyrosinase” value in the data set with tyrosinase from mushroom (Substrate: L-Tyrosine, 100 µM) was −2.6 ± 2.4%. Further, in data set [1], the viability at 72 h, 3 µM was found to be 96.6%; the viability at 72 h, 10 µM was 90.6%; the viability at 72 h, 30 µM was 81.2%; the viability at 72 h, 100 µM was found to be 60.7%.
Regarding `CCCCCCCCCCOC1=C(OCC(O)CO)C(=O)O[C@@H]1[C@@H](O)CO` (stereo partly drawn) [compound 24, 3-O-decyl-2-O-(2,3-dihydroxypropyl)-AsA], in the data set with B16 melanoma 4A5 cells, the inhibition at 3 µM was -5.8 ± 6%, the inhibition at 10 µM was determined as 20.9 ± 5.4%, the inhibition at 30 µM stood at 64.3 ± 3.8% and the inhibition at 100 µM amounted to 103 ± 2.4%. The compound further registered an IC50 in the data set with B16 melanoma 4A5 cells of 23.5 µM. In addition, the “Inhibition (%) of mushroom tyrosinase” value in the data set with tyrosinase from mushroom (Substrate: L-DOPA, 10 µM) turned out to be 0.7 ± 3.8%. For the same compound, the “Inhibition (%) of mushroom tyrosinase” value with tyrosinase from mushroom (Substrate: L-DOPA, 30 µM) is reported as −5.3 ± 4.2%. In addition, in the data set on tyrosinase from mushroom (Substrate: L-Tyrosine, 10 µM), the “Inhibition (%) of mushroom tyrosinase” value is reported as −4.1 ± 5.3%. Moreover, in the data set on tyrosinase from mushroom (Substrate: L-Tyrosine, 30 µM), the “Inhibition (%) of mushroom tyrosinase” value is recorded as −3.1 ± 4.1%. Moreover, in data set [1], the viability at 72 h, 3 µM turned out to be 92.5%; the viability at 72 h, 10 µM worked out at 87.1%; the viability at 72 h, 30 µM was determined as 68.5%; the viability at 72 h, 100 µM was 34.3%.
With `CCCCCCCCCCCOC1=C(OCC(O)CO)C(=O)O[C@@H]1[C@@H](O)CO` (stereo partly drawn) [compound 25, 2-O-(2,3-dihydroxypropyl)-3-O-undecyl-AsA], in the data set with B16 melanoma 4A5 cells, the inhibition at 3 µM was -5.1 ± 2.3%, the inhibition at 10 µM was 26.6 ± 3%, the inhibition at 30 µM came to 85 ± 3.8% and the inhibition at 100 µM came to 101 ± 10.1%. This compound showed an IC50 with B16 melanoma 4A5 cells of 18.1 µM. The “Inhibition (%) of mushroom tyrosinase” value in the data set on tyrosinase from mushroom (Substrate: L-DOPA, 10 µM) is on record as −10.2 ± 2.3%. Also, the “Inhibition (%) of mushroom tyrosinase” value in the data set with tyrosinase from mushroom (Substrate: L-DOPA, 30 µM) was −10.7 ± 3.8%. Further, the “Inhibition (%) of mushroom tyrosinase” value with tyrosinase from mushroom (Substrate: L-Tyrosine, 10 µM) was −8.0 ± 0.6%. For the same compound, the “Inhibition (%) of mushroom tyrosinase” value in the data set on tyrosinase from mushroom (Substrate: L-Tyrosine, 30 µM) is −8.7 ± 1.5%. In addition, in data set [1], the viability at 72 h, 3 µM came to 101%; the viability at 72 h, 10 µM was 85.8%; the viability at 72 h, 30 µM turned out to be 53.6%; the viability at 72 h, 100 µM was 24%.
